Laboratory results as given in publication PMC8032764 (Scientific Reports, 2021).
Read-outs that look alike come from different tables or passages of the source.

How the values were obtained:
[1] = Pharmacokinetics, single oral dosing; assay type: in vivo; conditions: plasma; for Tmax: read-out: Tmax (range)
Description: (§1) Concentrations were chosen to achieve the desired doses by administering 5 mL/kg to rats and 2.5 mL/kg to NHPs via oral gavage.
(§2) The calibration range was from 1.0 to 5000 ng/mL. After protein precipitation with ethanol, the sample solution was injected onto a Gemini C18 trapping column (2 × 10 mm; Phenomenex, Torrance, CA, USA) and polar endogenous compounds and salts were rinsed off. Analytical separation was performed on an Atlantis T3 column (2.1 × 50 mm) (Waters, Milford, MA, USA), using methanol/water containing 0.1% formic acid as mobile phase. A drug analogue was used as an internal standard.

Serotonin 5-HT3 = test system: T1, Serotonin 5-HT3; experiment: Cerep binding; design: species or system human; conditions: 10 μM; [3H]BRL 43694; hum. recomb. (CHO)
T1 construct: purchased Eurofins Cerep

Muscarinic M1 = test system: T2, Muscarinic M1; experiment: Cerep binding; design: species or system human; conditions: 10 μM; [3H]pirenzepine; hum. recomb. (CHO)
T2 construct: host or cells: CHO

Sigma (non-selective) = experiment: Cerep binding; conditions: 10 μM; [3H]DTG; rat cerebral cortex
[2] = Pharmacokinetics, single oral dosing; assay type: in vivo, Cynomolgus macaque; conditions: cynomolgus monkey, plasma, 10 mg/kg oral, microsuspension, n = 3 male
Description: as §1, §2

[3] = test system: Adrenergic α1 (non-selective); experiment: Cerep binding; conditions: 10 μM; [3H]prazosin; rat cerebral cortex
[4] = Plasma levels, prepulse inhibition; assay type: in vivo, rat; conditions: approximately 60 min, mean ± SD
Description: intensities (72, 76, 80, 84 dB) at total plasma concentrations of 56 ± 20, 169 ± 20, and […]
Compound administered at 1, 3 and 10 mg/kg p.o. to male Sprague-Dawley rats 30 min prior to testing. Bars indicate mean percent prepulse inhibition (% PPI) ± SEM; 10 animals per dose group. Background noise: 68 dB. Startle pulse: 12 0 dB. For full methods refer to:
Nordquist et al. (2008). Effects of aripiprazole/OPC-14597 on motor activity, pharmacological models of psychosis, and brain activity in rats. Neuropharmacology , 54,405-416.
Animals were euthanized at the end of testing and plasma samples were collected approximately 60 min post administration; n = 4 rats per group.
(1 picture or pasted object on this page, not shown here)

Histamine H2 = test system: T3, Histamine H2; experiment: Cerep binding; design: species or system human; conditions: 10 μM; [125I]APT; hum. recomb. (CHO)
T3 construct: host or cells: CHO

Galanin 2 = test system: T4, Galanin 2; experiment: Cerep binding; design: species or system human; conditions: 10 μM; [125I]galanin; hum. recomb. (CHO)
T4 construct: purchased Eurofins Cerep

Bradykinin B2 = test system: T5, Bradykinin B2; experiment: Cerep binding; design: species or system human; conditions: 10 μM; [3H]bradykinin; hum. recomb. (CHO)
T5 construct: purchased Eurofins Cerep

Neurokinin NK1 = test system: T6, Neurokinin NK1; experiment: Cerep binding; design: species or system human; conditions: 10 μM; [125I]BH-SP; hum., U-373MG cells
T6 construct: purchased Eurofins Cerep

GABA (non-selective) = experiment: Cerep binding; conditions: 10 μM; [3H]GABA; rat cerebral cortex
Neurokinin NK2 = test system: T7, Neurokinin NK2; experiment: Cerep binding; design: species or system human; conditions: 10 μM; [125I]NKA; hum. recomb. (CHO)
T7 construct: purchased Eurofins Cerep

Adrenergic β2 = test system: T8, Adrenergic β2; experiment: Cerep binding; design: species or system human; conditions: 10 μM; [3H](-)CGP 12177; hum. recomb. (CHO)
T8 construct: host or cells: CHO

Serotonin 5-HT2C = test system: T9, Serotonin 5-HT2C; experiment: Cerep binding; design: species or system human; conditions: 10 μM; [3H]mesulergine; hum. recomb. (CHO)
T9 construct: purchased Eurofins Cerep

human GABAA α5β3γ2 = human GABAA α5β3γ2 (Homo sapiens, UniProt P18507+P31644); experiment: [3H]-Ro-15 4513 displacement assay; assay type: binding; design: expressed in transfected cells; host or cells: HEK293-EBNA, transient
Description: IC50 values were derived from the inhibition curve and Ki values were calculated as described below.

[5] = biological target: T10, human GABAA α2β3γ2 receptors (Homo sapiens, UniProt P18507+P47869); experiment: [3H]-flumazenil competition binding, HEK293 membranes; conditions: 1 nM [3H]-flumazenil
T10 construct: expressed in transfected cells; host or cells: HEK293-EBNA, transient
Description: (§3) HEK293-EBNA cells adapted to grow in suspension were transiently transfected with the plasmids containing the desired GABAA receptor subunit cDNAs at α, β, γ, 1:1:2 ratio using XtremeGENE Q2 (Cat. No. 03045595001, Roche Applied Science, RAS, Rotkreuz, Switzerland) as previously described. GABAA α1β2γ2, α2β3γ2, α3β3γ2, α4β3γ2, α5β3γ2 and α6β3γ2 receptor subtypes were expressed in this system. 48 h post transfection, the cells were harvested and washed three times with cold PBS and frozen at − 80 °C.
(§4) Non-specific binding was determined in the presence of 10 μM diazepam.

[6] = biological target: T11, human GABAA α3β3γ2 receptors (Homo sapiens, UniProt P18507+P34903); experiment: as above; conditions: 1 nM [3H]-flumazenil
T11 construct: expressed in transfected cells; host or cells: HEK293-EBNA, transient
Description: as §3, §4

[7] = test system: Adrenergic α2 (non-selective); experiment: Cerep binding; conditions: 10 μM; [3H]RX 821002; rat cerebral cortex
Chemokine CXCR2 (IL-8B) = test system: T12, Chemokine CXCR2 (IL-8B); experiment: Cerep binding; design: species or system human; conditions: 10 μM; [125I]IL-8; hum. recomb. (HEK-293)
T12 construct: purchased Eurofins Cerep

[8] = Beagle, dog, 4 mg/kg oral, capsule, n = 3 male, ± standard deviation
[9] = C57/Bl6, mouse, 4 mg/kg oral, microsuspension, n = 2 male
[10] = Wistar, rat, 9 mg/kg oral, microsuspension, n = 2 male

Cc1onc(-c2ccc(F)cc2)c1COc1ccc(C(=O)N2CCS(=O)(=O)CC2)cn1 [basmisanil]
bioavailability ([1]; Beagle, dog, 4 mg/kg oral, capsule, n = 3 male): 61% | Tmax ([1]; Beagle, dog, 4 mg/kg oral, capsule, n = 3 male, median): 1.5 h | AUC(0-t) [1, 8]: 10600 ng·h/mL | Cmax [1, 8]: 788 ± 275 ng/mL | AUC(0-t) [1, 9]: 455 ng·h/mL | Cmax [1, 9]: 520 ng/mL | bioavailability [1, 9]: 25% | Tmax [1, 9]: 0.3 h | AUC(0-t) [1, 10]: 1100 ng·h/mL | Cmax [1, 10]: 400 ng/mL | bioavailability [1, 10]: 41% | Tmax [1, 10]: 0.5 h | % Inhibition (Serotonin 5-HT3): 8% | % Inhibition (Muscarinic M1): 6% | % Inhibition (Sigma (non-selective)): 58% | bioavailability [2]: 48% | Tmax ([2]; median, read-out: Tmax (range)): 1.5 h | AUC(0-t) ([2]; ± standard deviation): 27500 ng·h/mL | Cmax ([2]; ± standard deviation): 3650 ± 110 ng/mL | % Inhibition [3]: -1% | total plasma concentration ([4]; 1 mg/kg p.o.): 56 ± 20 ng/mL | total plasma concentration ([4]; 3 mg/kg p.o.): 169 ± 20 ng/mL | total plasma concentration ([4]; 10 mg/kg p.o.): 729 ± 255 ng/mL | % Inhibition (Histamine H2): 8% | % Inhibition (Galanin 2): -1% | % Inhibition (Bradykinin B2): 14% | % Inhibition (Neurokinin NK1): 37% | % Inhibition (GABA (non-selective)): -1% | % Inhibition (Neurokinin NK2): 7% | % Inhibition (Adrenergic β2): 10% | % Inhibition (Serotonin 5-HT2C): 10% | Ki (human GABAA α5β3γ2): 7.6 ± 0.3 nM | Ki [5]: 458 ± 27 nM | Ki [6]: 510 ± 21 nM | % Inhibition [7]: -8% | % Inhibition (Chemokine CXCR2 (IL-8B)): -3%
